Holding throughout (format): in vivo
What all share (details): 312 h, evaluated after 13 days, 100=total damage to plant, 0=no damage to plant

The subject of assay [1] is Avena fatua (AVEFA). Put plainly: Test Example B, post-emergence herbicidal test. The protocol:
(§1) Seeds of a variety of test species were sown in standard soil in pots. After cultivation for one day (pre-emergence) or after 8 days cultivation (post-emergence) under controlled conditions in a glasshouse (at 24/16° C., day/night; 14 hours light; 65% humidity), the plants were sprayed with an aqueous spray solution derived from the formulation of the technical active ingredient in acetone/water (50:50) solution containing 0.5% Tween 20 (polyoxyethelyene sorbitan monolaurate, CAS RN 9005-64-5). The test plants were then grown in a glasshouse under controlled conditions in a glasshouse (at 24/16° C., day/night; 14 hours light; 65% humidity) and watered twice daily. After 13 days for pre and post-emergence, the test was evaluated (100=total damage to plant; 0=no damage to plant). Test Plants: Setaria faberi (SETFA), Alopecurus myosuroides (ALOMY), Echinochloa crus-galli (ECHCG), and Avena fatua (AVEFA).

Assay [2] relates to Echinochloa crus-galli (ECHCG). The assay is described as follows: Test Example B, post-emergence herbicidal test. The protocol: as §1
In assay [3] the test system is Alopecurus myosuroides (ALOMY). Put plainly: Test Example B, post-emergence herbicidal test. The protocol: as §1
Assay [4] has as its system Avena fatua (AVEFA). Put plainly: Test Example B, pre-emergence herbicidal test. The protocol: as §1
The subject of assay [5] is Echinochloa crus-galli (ECHCG). Put plainly: Test Example B, pre-emergence herbicidal test. The protocol:
as §1

Assay [6] has as its system Alopecurus myosuroides (ALOMY). Put plainly: Test Example B, pre-emergence herbicidal test. The protocol:
as §1

SMILES strings stand for the structures.

Regarding `CCc1ccc(-c2ccc(Cl)cc2)cc1C1=C(O)[C@H]2[C@H]3CC[C@H](C3)[C@H]2C1=O` (racemic) [Compound T1, rac-(3aR,4R,7S,7aS)-2-(4′-chloro-4-ethylbiphenyl-3-yl)hexahydro-4,7-methanoindene-1,3-dione], the pest or weed control at 250 g/ha in assay [1] was 100%; in assay [2], 100%; in assay [3], 90%; in assay [4] it was 100%; in assay [5] it was 100%; in assay [6] it was 70%.
In the case of `CCc1ccc(-c2ccc(Cl)nc2)cc1C1=C(O)[C@H]2[C@H]3CC[C@H](C3)[C@H]2C1=O` [Compound T36], the pest or weed control at 250 g/ha in assay [1] was found to be 20%; in assay [2], 50%; in assay [3], 0%; in assay [4] it was 40%; in assay [5], 80%; in assay [6], 30%.
For the molecule `CCc1ccc(-c2ccc(Cl)s2)cc1C1=C(O)[C@H]2[C@H]3CC[C@H](CC3)[C@H]2C1=O` [Compound T17], the pest or weed control at 250 g/ha in assay [1] was 50%; in assay [2] it was 90%; in assay [3] it was 40%; in assay [4], 90%; in assay [5] it was 100%; in assay [6] it was 80%.
Take `CCc1ccc(-c2ccc(Cl)c(C(F)(F)F)c2)cc1C1=C(O)[C@H]2[C@H]3CC[C@H](C3)[C@H]2C1=O` [Compound T33]: the pest or weed control at 250 g/ha was 70% in assay [1]; 90% in assay [2]; 70% in assay [3]; 30% in assay [4]; 100% in assay [5]; 20% in assay [6].
As to `CCc1ccc(-c2c(F)cc(Cl)cc2F)cc1C1=C(O)[C@H]2[C@H]3CC[C@H](CC3)[C@H]2C1=O` [Compound T20], the pest or weed control at 250 g/ha in assay [1], in assay [2], in assay [3], in assay [4], in assay [5] and in assay [6] was 100% in each case.
In the case of `Cc1ccc(-c2ccc(Cl)cc2)cc1C1=C(O)[C@H]2[C@H]3CC[C@H](CC3)[C@H]2C1=O` [Compound T4], the pest or weed control at 250 g/ha in assay [1] was 80%; in assay [2] it was 100%; in assay [3] it was 70%; in assay [4] it was 70%; in assay [5], 100%; in assay [6], 50%.
In the case of `Cc1ccc(-c2ccc(Cl)cc2)cc1C1=C(O)[C@H]2[C@H]3CC[C@H](C3)[C@H]2C1=O` [Compound T2], the pest or weed control at 250 g/ha came out at 60% in assay [1]; 100% in assay [2]; 40% in assay [3]; 80% in assay [4]; 100% in assay [5]; 30% in assay [6].
For `CCc1ccc(-c2ccc(Cl)c(F)c2Cl)cc1C1=C(O)[C@H]2[C@H]3CC[C@H](CC3)[C@H]2C1=O` [Compound T43], the pest or weed control at 250 g/ha in assay [1] turned out to be 30%; in assay [2] it was 100%; in assay [3] it was 70%; in assay [4], 20%; in assay [5], 40%; in assay [6], 0%.
On to `CCc1ccc(-c2ccc(Cl)cc2C)cc1C1=C(O)[C@H]2[C@H]3CC[C@H](C3)[C@H]2C1=O` [Compound T30], for which the pest or weed control at 250 g/ha in assay [1] was determined as 0%; in assay [2], 90%; in assay [3], 0%; in assay [4], 30%; in assay [5], 100%; in assay [6], 40%.
Turning to `CCc1ccc(-c2ccc(Cl)s2)cc1C1=C(O)[C@H]2[C@H]3CC[C@H](C3)[C@H]2C1=O` [Compound T34], the pest or weed control at 250 g/ha in assay [1] came out at 80%; in assay [2], 90%; in assay [3] it was 60%; in assay [4] it was 40%; in assay [5], 100%; in assay [6], 30%.
With `CCc1ccc(-c2ccc(Cl)c(F)c2)cc1C1=C(O)[C@H]2[C@H]3CC[C@H](CC3)[C@H]2C1=O` [Compound T18], the pest or weed control at 250 g/ha in assay [1] is 100%; in assay [2], 100%; in assay [3] it was 100%; in assay [4], 50%; in assay [5], 90%; in assay [6], 50%.
As to `CCc1ccc(-c2c(F)cc(Cl)cc2Cl)cc1C1=C(O)[C@H]2[C@H]3CC[C@H](C3)[C@H]2C1=O` [Compound T38], the pest or weed control at 250 g/ha worked out at 40% in assay [1]; 90% in assay [2]; 30% in assay [3]; 0% in assay [4]; 80% in assay [5]; 0% in assay [6].
As to `CCc1ccc(-c2ccc(Cl)c(Cl)c2F)cc1C1=C(O)[C@H]2[C@H]3CC[C@H](C3)[C@H]2C1=O` [Compound T41], the pest or weed control at 250 g/ha came to 60% in assay [1]; 90% in assay [2]; 0% in assay [3]; 0% in assay [4]; 50% in assay [5]; 0% in assay [6].
`CCc1ccc(-c2ccc(Cl)c(Cl)c2)cc1C1=C(O)[C@H]2[C@H]3CC[C@H](CC3)[C@H]2C1=O` [Compound T13]: the pest or weed control at 250 g/ha in assay [1] was 60%; in assay [2], 100%; in assay [3], 60%; in assay [4] it was 0%; in assay [5], 90%; in assay [6], 20%.
As for `CCc1ccc(-c2ccc(Cl)cc2Cl)cc1C1=C(O)[C@H]2[C@H]3CC[C@H](CC3)[C@H]2C1=O` [Compound T11], the pest or weed control at 250 g/ha in assay [1] was 100%; in assay [2], 100%; in assay [3], 90%; in assay [4], 0%; in assay [5], 60%; in assay [6], 0%.
Consider `CCc1ccc(-c2ccc(Cl)c(OC)c2)cc1C1=C(O)[C@H]2[C@H]3CC[C@H](CC3)[C@H]2C1=O` [Compound T14], for which the pest or weed control at 250 g/ha in assay [1] is 0%; in assay [2] it was 90%; in assay [3], 0%; in assay [4], 70%; in assay [5] it was 100%; in assay [6], 80%.

One may read the pest or weed control as how far the test organism was held down. A high value points to a strong effect.

The values above are taken from patent US20120065066A1, “NOVEL HERBICIDES” (SYNGENTA CROP PROTECTION LLC, priority 2009, published 2012).
